Data on five compounds can be found in patent US10206394B2, “Herbicidal compounds” (Syngenta Participations AG, priority 2014, dated 2019).

The structures appear in SMILES notation. Read-outs that look alike come from different tables or passages of the source.

What all share (assay): Glasshouse assay for herbicidal activity (pre- and post-emergence), percentage phytotoxicity
What all share (format): in vivo

The subject of assay [1] is Alopecurus myosuroides (ALOMY). The note with it: Alopecurus myosuroides. The method, boiled down:
(§1)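 Percent injury was estimated by eye on a scale where 0% means no damage and 100% complete damage. Ratings came 15 DAA post-emergence and 20 DAA pre-emergence, with plants held under 16 h light and 65% humidity at 24/18 °C or 20/16 °C day/night.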

For assay [2], the system named is Lolium perenne (LOLPE). The settings on record: Lolium perenne. The method, boiled down:
as §1

Assay [3] deals with Avena fatua (AVEFA). The note with it: Avena fatua. In a few lines: as §1
Assay [4] deals with Echinochloa crus-galli (ECHCG). The note with it: Echinochloa crus-galli. The method, boiled down:
as §1

The mark [5] stands for this setting: post-emergence, 360 h, 250 g/ha, post-emergence, 15 DAA, visual assessment (100%=total damage, 0%=no damage), read-out: Post-emergence herbicidal activity (percentage phytotoxicity) ALOMY POST.
Where [6] appears, read: pre-emergence, 480 h, 250 g/ha, pre-emergence, 20 DAA, visual assessment (100%=total damage, 0%=no damage), read-out: Pre-emergence herbicidal activity (percentage phytotoxicity) ALOMY PRE.
Where [7] appears, read: post-emergence, 360 h, 250 g/ha, post-emergence, 15 DAA, visual assessment (100%=total damage, 0%=no damage), read-out: Post-emergence herbicidal activity (percentage phytotoxicity) LOLPE POST.
Where [8] appears, read: pre-emergence, 480 h, 250 g/ha, pre-emergence, 20 DAA, visual assessment (100%=total damage, 0%=no damage), read-out: Pre-emergence herbicidal activity (percentage phytotoxicity) LOLPE PRE.
[9] abbreviates: post-emergence, 360 h, 250 g/ha, post-emergence, 15 DAA, visual assessment (100%=total damage, 0%=no damage), read-out: Post-emergence herbicidal activity (percentage phytotoxicity) AVEFA POST.
[10] abbreviates: pre-emergence, 480 h, 250 g/ha, pre-emergence, 20 DAA, visual assessment (100%=total damage, 0%=no damage), read-out: Pre-emergence herbicidal activity (percentage phytotoxicity) AVEFA PRE.
The mark [11] stands for this setting: post-emergence, 360 h, 250 g/ha, post-emergence, 15 DAA, visual assessment (100%=total damage, 0%=no damage), read-out: Post-emergence herbicidal activity (percentage phytotoxicity) ECHCG POST.
The mark [12] stands for this setting: pre-emergence, 480 h, 250 g/ha, pre-emergence, 20 DAA, visual assessment (100%=total damage, 0%=no damage), read-out: Pre-emergence herbicidal activity (percentage phytotoxicity) ECHCG PRE.

For `Cc1cc(C)c(C2C(=O)CC(CC(=O)Nc3ccccn3)C2=O)c(C)c1` (stereo not shown) [Compound B64], the pest or weed control at 250 g/ha in assay [1] (setting [5]) amounted to 80%; in assay [1] (setting [6]) it was 80%; in assay [2] (setting [7]), 80%; in assay [2] (setting [8]), 70%; in assay [3] (setting [9]) it was 70%; in assay [3] (setting [10]), 50%. Also, the pest or weed control at 250 g/ha stood at 70% in assay [4] (setting [11]) and 80% in assay [4] (setting [12]).
On to `Cc1cc(C)c(C2C(=O)CC(CC(=O)NC(C)(C)CCl)C2=O)c(C)c1` (stereo not shown) [Compound B39], for which the pest or weed control at 250 g/ha in assay [1] (setting [5]) was determined as 80%; in assay [1] (setting [6]) it was 30%; in assay [2] (setting [7]), 60%; in assay [2] (setting [8]), 60%; in assay [3] (setting [9]), 70%; in assay [3] (setting [10]), 30%. In addition, the pest or weed control at 250 g/ha came to 50% in assay [4] (setting [11]) and 0% in assay [4] (setting [12]).
Consider `Cc1cc(OCC(F)(F)F)cc(C)c1C1C(=O)CC(CC(=O)N2CCOCC2)C1=O` (stereo not shown) [Compound B146], for which the pest or weed control at 250 g/ha in assay [1] (setting [5]) was 80%; in assay [1] (setting [6]) it was 90%; in assay [2] (setting [7]), 90%; in assay [2] (setting [8]) it was 90%; in assay [3] (setting [9]), 90%; in assay [3] (setting [10]) it was 50%. Also, the pest or weed control at 250 g/ha in assay [4] (setting [11]) and in assay [4] (setting [12]) was 100% throughout.
For `Cc1cc(C)c(C2C(=O)CC(CC(=O)Nc3ccc(F)cc3F)C2=O)c(C)c1` (stereo not shown) [Compound B3], the pest or weed control at 250 g/ha in assay [1] (setting [5]) is 0%; in assay [1] (setting [6]), 60%; in assay [2] (setting [7]), 80%; in assay [2] (setting [8]), 90%; in assay [3] (setting [9]) it was 10%; in assay [3] (setting [10]) it was 50%. Besides, the pest or weed control at 250 g/ha in assay [4] (setting [11]) was found to be 70%; in assay [4] (setting [12]), 90%.
Consider `Cc1cc(C)c(C2C(=O)CC(CC(=O)NCc3ncc(C(F)(F)F)cc3Cl)C2=O)c(C)c1` (stereo not shown) [Compound A109], for which the pest or weed control at 250 g/ha stood at 90% in assay [1] (post-emergence, 360 h, Rate 250 g/ha, post-emergence, assessed visually 15 DAA, 100%=total damage, 0%=no damage, read-out: Post-emergence herbicidal activity (percentage phytotoxicity) ALOMY POST); 90% in assay [1] (pre-emergence, 480 h, Rate 250 g/ha, pre-emergence, assessed visually 20 DAA, 100%=total damage, 0%=no damage, read-out: Pre-emergence herbicidal activity (percentage phytotoxicity) ALOMY PRE); 80% in assay [2] (post-emergence, 360 h, Rate 250 g/ha, post-emergence, assessed visually 15 DAA, 100%=total damage, 0%=no damage, read-out: Post-emergence herbicidal activity (percentage phytotoxicity) LOLPE POST); 90% in assay [2] (pre-emergence, 480 h, Rate 250 g/ha, pre-emergence, assessed visually 20 DAA, 100%=total damage, 0%=no damage, read-out: Pre-emergence herbicidal activity (percentage phytotoxicity) LOLPE PRE); 80% in assay [3] (post-emergence, 360 h, Rate 250 g/ha, post-emergence, assessed visually 15 DAA, 100%=total damage, 0%=no damage, read-out: Post-emergence herbicidal activity (percentage phytotoxicity) AVEFA POST); 50% in assay [3] (pre-emergence, 480 h, Rate 250 g/ha, pre-emergence, assessed visually 20 DAA, 100%=total damage, 0%=no damage, read-out: Pre-emergence herbicidal activity (percentage phytotoxicity) AVEFA PRE). Besides, the pest or weed control at 250 g/ha was 80% in assay [4] (post-emergence, 360 h, Rate 250 g/ha, post-emergence, assessed visually 15 DAA, 100%=total damage, 0%=no damage, read-out: Post-emergence herbicidal activity (percentage phytotoxicity) ECHCG POST) and 80% in assay [4] (pre-emergence, 480 h, Rate 250 g/ha, pre-emergence, assessed visually 20 DAA, 100%=total damage, 0%=no damage, read-out: Pre-emergence herbicidal activity (percentage phytotoxicity) ECHCG PRE).
